{
  "source": "paper PMC2661907",
  "about": "“The Proteasome Is a Molecular Target of Environmental Toxic Organotins” (Environmental Health Perspectives, 2008)",
  "molecular_target": "T1, 20S proteasome (chymotrypsin-like activity, β5 subunit) (Oryctolagus cuniculus, UniProt G1T4Q9)",
  "T1 construct": "gene PSMB5; purified rabbit 20S proteasome; with other subunits of the 20S proteasome",
  "T1 sequence (G1T4Q9 1-263)": "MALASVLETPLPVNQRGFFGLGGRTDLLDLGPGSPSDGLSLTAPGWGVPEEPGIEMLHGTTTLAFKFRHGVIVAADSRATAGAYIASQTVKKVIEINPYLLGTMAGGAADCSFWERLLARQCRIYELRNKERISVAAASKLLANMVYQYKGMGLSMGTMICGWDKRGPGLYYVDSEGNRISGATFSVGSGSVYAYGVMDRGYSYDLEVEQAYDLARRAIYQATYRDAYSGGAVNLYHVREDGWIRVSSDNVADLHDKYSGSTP",
  "test": "fluorogenic peptide CT-like activity assay on purified",
  "assay_type": "biochemical",
  "data": [
    {"smiles": "CCC[CH2][Sn]([Cl])([CH2]CCC)[CH2]CCC", "note": "[TBT, tributyltin chloride]", "values": [
      {"measurement": "IC50", "result": 15.6, "unit": "µM"}
    ]}
  ]
}
